For the test, the system named is MV-4-11 cells. The test can be described thus: Gene expression microarray analysis (Affymetrix PrimeView) and GSEA. The note with it: ProbeSet 11719632_a_at; LIST B. It is filed as cell-based, human. Details: RFU PODN (11730768_x_at) / Fold change /veh PODN (11730768_x_at) / RFU LINC00158 (11744669_a_at) / Fold change /veh LINC00158 (11744669_a_at) / RFU DUSP10 (11751237_a_at) / Fold change /veh DUSP10 (11751237_a_at) / RFU ID3 (11757404_x_at) / Fold change /veh ID3 (11757404_x_at) / RFU PLEKHG5 (11737974_s_at) / Fold change /veh PLEKHG5 (11737974_s_at) / RFU LRRC4B (11730491_at) / Fold change /veh LRRC4B (11730491_at) / RFU GIMAP4 (11747438_a_at) / Fold change /veh GIMAP4 (11747438_a_at) / RFU KRT8 (11758183_x_at) / Fold change /veh KRT8 (11758183_x_at) / RFU CNN1 (11734310_a_at) / Fold change /veh CNN1 (11734310_a_at) / RFU VPS37D (11726825_at) / Fold change /veh VPS37D (11726825_at) / RFU C10orf10 (11716522_x_at) / Fold change /veh C10orf10 (11716522_x_at) / RFU KIR2DL2 /// KIR2DL4 /// KIR2DL5A /// KIR2DL5B /// KIR2DS1 /// KIR2DS2 /// KIR2DS3 /// KIR2DS4 /// KIR3DL3 /// KIR3DL3 /// KIR3DS1 (11738374_at) / Fold change /veh KIR2DL2 /// KIR2DL4 /// KIR2DL5A /// KIR2DL5B /// KIR2DS1 /// KIR2DS2 /// KIR2DS3 /// KIR2DS4 /// KIR3DL3 /// KIR3DL3 /// KIR3DS1 (11738374_at) / RFU C1QL1 (11718748_at) / Fold change /veh C1QL1 (11718748_at) / RFU TMPRSS4 (11747572_a_at) / Fold change /veh TMPRSS4 (11747572_a_at) / RFU HAMP (11756126_x_at) / Fold change /veh HAMP (11756126_x_at) / RFU RNFT2 (11725882_a_at) / Fold change /veh RNFT2 (11725882_a_at) / RFU NR4A2 (11747474_a_at) / Fold change /veh NR4A2 (11747474_a_at) / RFU ABCC12 (11746883_a_at) / Fold change /veh ABCC12 (11746883_a_at) / RFU TMEM136 (11760407_x_at) / Fold change /veh TMEM136 (11760407_x_at) / RFU CLDN22 /// WWC2 (11732394_at) / Fold change /veh CLDN22 /// WWC2 (11732394_at) / RFU HLA-DPB1 (11760878_x_at) / Fold change /veh HLA-DPB1 (11760878_x_at) / RFU SPINT1 (11716480_a_at) / Fold change /veh SPINT1 (11716480_a_at) / RFU GAP43 (11754022_s_at) / Fold change /veh GAP43 (11754022_s_at) / RFU A4GNT (11735810_at) / Fold change /veh A4GNT (11735810_at) / RFU PRB3 (11715151_x_at) / Fold change /veh PRB3 (11715151_x_at) / RFU TUBB4B (11761932_at) / Fold change /veh TUBB4B (11761932_at) / RFU CAPN14 (11732068_a_at) / Fold change /veh CAPN14 (11732068_a_at) / RFU TMCC2 (11721928_a_at) / Fold change /veh TMCC2 (11721928_a_at) / RFU IRGQ (11745062_a_at) / Fold change /veh IRGQ (11745062_a_at) / RFU FAM174B (11720279_a_at) / Fold change /veh FAM174B (11720279_a_at) / RFU TMPRSS4 (11748680_a_at) / Fold change /veh TMPRSS4 (11748680_a_at) / RFU FAM212B (11763350_a_at) / Fold change /veh FAM212B (11763350_a_at) / RFU PLEKHG5 (11743358_a_at) / Fold change /veh PLEKHG5 (11743358_a_at) / RFU ZSCAN30 (11745921_a_at) / Fold change /veh ZSCAN30 (11745921_a_at) / RFU CMKLR1 (11741424_a_at) / Fold change /veh CMKLR1 (11741424_a_at) / RFU LOC101060620 /// MAPK8IP1 (11723275_at) / Fold change /veh LOC101060620 /// MAPK8IP1 (11723275_at) / RFU SPTSSB (11747773_x_at) / Fold change /veh SPTSSB (11747773_x_at) / RFU PRSS12 (11739890_at) / Fold change /veh PRSS12 (11739890_at) / RFU BIN1 (11741810_x_at) / Fold change /veh BIN1 (11741810_x_at) / RFU WNT11 (11732464_a_at) / Fold change /veh WNT11 (11732464_a_at) / RFU C10orf10 (11716521_a_at) / Fold change /veh C10orf10 (11716521_a_at) / RFU C5orf56 (11738089_at) / Fold change /veh C5orf56 (11738089_at) / RFU CYB561 (11721691_x_at) / Fold change /veh CYB561 (11721691_x_at) / RFU ANKRD19P (11752326_a_at) / Fold change /veh ANKRD19P (11752326_a_at) / RFU OR2T12 /// OR2T33 /// OR2T8 (11738714_s_at) / Fold change /veh OR2T12 /// OR2T33 /// OR2T8 (11738714_s_at) / RFU VCAN (11748164_a_at) / Fold change /veh VCAN (11748164_a_at) / RFU JSRP1 (11732532_at) / Fold change /veh JSRP1 (11732532_at) / RFU KRTAP10-11 (11738290_x_at) / Fold change /veh KRTAP10-11 (11738290_x_at) / RFU MYO3A (11730013_a_at) / Fold change /veh MYO3A (11730013_a_at) / RFU EBF3 (11725865_a_at) / Fold change /veh EBF3 (11725865_a_at) / RFU CAMK2N1 (11719241_x_at) / Fold change /veh CAMK2N1 (11719241_x_at) / RFU C5orf56 (11738088_a_at) / Fold change /veh C5orf56 (11738088_a_at) / RFU OLFML3 (11715873_a_at) / Fold change /veh OLFML3 (11715873_a_at) / RFU LOC100653217 /// NTM (11731650_a_at) / Fold change /veh LOC100653217 /// NTM (11731650_a_at) / RFU MAPK11 (11762145_a_at) / Fold change /veh MAPK11 (11762145_a_at) / RFU FIZ1 (11724087_x_at) / Fold change /veh FIZ1 (11724087_x_at) / RFU OASL (11726364_x_at) / Fold change /veh OASL (11726364_x_at) / RFU SOX15 (11748057_x_at) / Fold change /veh SOX15 (11748057_x_at) / RFU CD79A (11719716_a_at) / Fold change /veh CD79A (11719716_a_at) / RFU HIST1H1D (11736915_at) / Fold change /veh HIST1H1D (11736915_at) / RFU CASKIN2 (11723855_a_at) / Fold change /veh CASKIN2 (11723855_a_at) / RFU LOC730098 (11760151_x_at) / Fold change /veh LOC730098 (11760151_x_at) / RFU OR4N2 (11742367_at) / Fold change /veh OR4N2 (11742367_at) / RFU PRRT2 (11749266_a_at) / Fold change /veh PRRT2 (11749266_a_at) / RFU SNX32 (11753110_a_at) / Fold change /veh SNX32 (11753110_a_at) / RFU CDHR5 (11726645_a_at) / Fold change /veh CDHR5 (11726645_a_at) / RFU RCAN1 (11760418_a_at) / Fold change /veh RCAN1 (11760418_a_at) / RFU FAM167A (11723789_a_at) / Fold change /veh FAM167A (11723789_a_at) / RFU FAM26E (11764081_at) / Fold change /veh FAM26E (11764081_at) / RFU ISYNA1 (11749810_s_at) / Fold change /veh ISYNA1 (11749810_s_at) / RFU ACY1 (11761880_at) / Fold change /veh ACY1 (11761880_at) / RFU 11764098_at / Fold change /veh 11764098_at / RFU SAMD14 (11745864_x_at) / Fold change /veh SAMD14 (11745864_x_at) / RFU NPB (11741838_a_at) / Fold change /veh NPB (11741838_a_at) / RFU TMPRSS6 (11731388_a_at) / Fold change /veh TMPRSS6 (11731388_a_at) / RFU KRTAP10-2 (11738614_at) / Fold change /veh KRTAP10-2 (11738614_at) / RFU ARHGAP8 /// PRR5-ARHGAP8 (11727945_x_at) / Fold change /veh ARHGAP8 /// PRR5-ARHGAP8 (11727945_x_at) / RFU KRTAP5-7 /// NADSYN1 (11734609_at) / Fold change /veh KRTAP5-7 /// NADSYN1 (11734609_at) / RFU RASL12 (11751679_a_at) / Fold change /veh RASL12 (11751679_a_at) / RFU CDKN2B (11736163_a_at) / Fold change /veh CDKN2B (11736163_a_at) / RFU PRF1 (11729649_at) / Fold change /veh PRF1 (11729649_at) / RFU, ZNF638 /// ZNF638-IT1 / Fold change vs veh, ZNF638 /// ZNF638-IT1 / RFU, PANK3 / Fold change vs veh, PANK3 / RFU, SH3YL1 / Fold change vs veh, SH3YL1 / RFU, ZEB2 / Fold change vs veh, ZEB2 / RFU, NRIP1 / Fold change vs veh, NRIP1 / RFU, PTTG1IP / Fold change vs veh, PTTG1IP / RFU, CAPN2 / Fold change vs veh, CAPN2 / RFU, MED14 / Fold change vs veh, MED14 / RFU, SNORA58 / Fold change vs veh, SNORA58 / RFU, C1orf63 / Fold change vs veh, C1orf63 / RFU, LRRFIP1 / Fold change vs veh, LRRFIP1 / RFU, NDUFAF7 / Fold change vs veh, NDUFAF7 / RFU, SLC12A2 / Fold change vs veh, SLC12A2 / RFU, IBTK / Fold change vs veh, IBTK / RFU, ESF1 / Fold change vs veh, ESF1 / Fold change vs veh, TMEM50B / RFU, TAOK1 / Fold change vs veh, TAOK1 / RFU, ACBD3 / Fold change vs veh, ACBD3 / RFU, TMA16 / Fold change vs veh, TMA16 / RFU, RWDD3 / Fold change vs veh, RWDD3 / RFU, BCAT1 / Fold change vs veh, BCAT1 / RFU, EDEM3 / Fold change vs veh, EDEM3 / RFU, TMEM33 / Fold change vs veh, TMEM33 / RFU, WDR75 / Fold change vs veh, WDR75 / RFU, AHCTF1 / Fold change vs veh, AHCTF1 / RFU, TFRC / Fold change vs veh, TFRC / RFU, ZDHHC17 / Fold change vs veh, ZDHHC17 / RFU, NOM1 / Fold change vs veh, NOM1 / RFU, ARL8B / Fold change vs veh, ARL8B / RFU, ZBTB11 / Fold change vs veh, ZBTB11 / RFU, TAMM41 / Fold change vs veh, TAMM41 / RFU, KIAA1704 /// LOC100996395 / Fold change vs veh, KIAA1704 /// LOC100996395 / RFU, ING1 / Fold change vs veh, ING1 / RFU, TRMT61B / Fold change vs veh, TRMT61B / RFU, FUBP3 / Fold change vs veh, FUBP3 / RFU, TP53 / Fold change vs veh, TP53 / RFU, TNKS2 / Fold change vs veh, TNKS2 / RFU, ZFP14 / Fold change vs veh, ZFP14 / RFU, ACTR2 / Fold change vs veh, ACTR2 / RFU, PPP3R1 / Fold change vs veh, PPP3R1 / RFU, PIK3R1 / Fold change vs veh, PIK3R1 / RFU, HNRNPA1 / Fold change vs veh, HNRNPA1 / RFU, RNF170 / Fold change vs veh, RNF170 / RFU, ZNF28 / Fold change vs veh, ZNF28 / RFU, RNGTT / Fold change vs veh, RNGTT / RFU, OGT / Fold change vs veh, OGT / RFU, BRD1 / Fold change vs veh, BRD1 / RFU, MARS / Fold change vs veh, MARS / RFU, ZNF655 / Fold change vs veh, ZNF655 / RFU, FAHD1 / Fold change vs veh, FAHD1 / RFU, BDP1 / Fold change vs veh, BDP1 / RFU, LRRCC1 / Fold change vs veh, LRRCC1 / RFU, ARID1A / Fold change vs veh, ARID1A / RFU, ZNF146 / Fold change vs veh, ZNF146 / RFU, ZNF330 / Fold change vs veh, ZNF330 / RFU, GPN3 / Fold change vs veh, GPN3 / RFU, C9orf123 / Fold change vs veh, C9orf123 / RFU, N4BP2L2 / Fold change vs veh, N4BP2L2 / RFU, ARFIP1 / Fold change vs veh, ARFIP1 / RFU, FAM179B / Fold change vs veh, FAM179B / RFU, BCL10 / Fold change vs veh, BCL10 / RFU, UHRF1BP1L / Fold change vs veh, UHRF1BP1L / RFU, BET1 / Fold change vs veh, BET1 / RFU, CNOT2 / Fold change vs veh, CNOT2 / RFU, ZNF268 / Fold change vs veh, ZNF268 / Fold change vs veh, ZNF507 / RFU, DGCR2 / Fold change vs veh, DGCR2 / RFU, WDSUB1 / Fold change vs veh, WDSUB1 / Fold change vs veh, HSP90B1 /// MIR3652 / RFU, ADSS / Fold change vs veh, ADSS / RFU, GK / Fold change vs veh, GK / RFU, ZNF148 / Fold change vs veh, ZNF148 / RFU, TAF9 / Fold change vs veh, TAF9 / RFU, SLC1A5 / Fold change vs veh, SLC1A5 / RFU, SLMO2 / Fold change vs veh, SLMO2 / RFU, ABCC4 / Fold change vs veh, ABCC4 / RFU, LOC101060439 /// RAP1B / Fold change vs veh, LOC101060439 /// RAP1B / RFU, RFX7 / Fold change vs veh, RFX7 / RFU, GTPBP10 / Fold change vs veh, GTPBP10 / RFU, CNEP1R1 / Fold change vs veh, CNEP1R1 / RFU, BIVM-ERCC5 /// ERCC5 / Fold change vs veh, BIVM-ERCC5 /// ERCC5 / RFU, ILF3 / Fold change vs veh, ILF3 / RFU 11762660_at / Fold change /veh 11762660_at / RFU VCAN (11757783_s_at) / Fold change /veh VCAN (11757783_s_at) / RFU DDX43 (11728927_at) / Fold change /veh DDX43 (11728927_at) / RFU KRT8 (11758188_x_at) / Fold change /veh KRT8 (11758188_x_at) / RFU NKD1 (11759106_at) / Fold change /veh NKD1 (11759106_at) / RFU SRD5A1 (11742802_a_at) / Fold change /veh SRD5A1 (11742802_a_at) / RFU TPSAB1 /// TPSB2 (11721975_s_at) / Fold change /veh TPSAB1 /// TPSB2 (11721975_s_at) / RFU GSTM3 (11746129_a_at) / Fold change /veh GSTM3 (11746129_a_at) / RFU IL23R (11737362_x_at) / Fold change /veh IL23R (11737362_x_at) / RFU TMEM51 (11727254_a_at) / Fold change /veh TMEM51 (11727254_a_at) / RFU PIWIL2 (11732686_x_at) / Fold change /veh PIWIL2 (11732686_x_at) / RFU ORM1 (11744905_x_at) / Fold change /veh ORM1 (11744905_x_at) / RFU CCDC152 (11743942_at) / Fold change /veh CCDC152 (11743942_at) / RFU ECM1 (11717891_a_at) / Fold change /veh ECM1 (11717891_a_at) / RFU IL23R (11748794_a_at) / Fold change /veh IL23R (11748794_a_at) / RFU TNFAIP8L3 (11732012_x_at) / Fold change /veh TNFAIP8L3 (11732012_x_at) / RFU MBOAT4 (11741988_at) / Fold change /veh MBOAT4 (11741988_at) / RFU 11764193_at / Fold change /veh 11764193_at / RFU TMEM53 (11763286_at) / Fold change /veh TMEM53 (11763286_at) / RFU MAGEB2 (11727129_at) / Fold change /veh MAGEB2 (11727129_at) / RFU TMEM200A (11744735_a_at) / Fold change /veh TMEM200A (11744735_a_at) / RFU CCDC152 (11751479_a_at) / Fold change /veh CCDC152 (11751479_a_at) / RFU FAM211A (11726209_a_at) / Fold change /veh FAM211A (11726209_a_at) / RFU RGS16 (11746705_a_at) / Fold change /veh RGS16 (11746705_a_at) / RFU VCAN (11755009_s_at) / Fold change /veh VCAN (11755009_s_at) / RFU RHOB (11743442_s_at) / Fold change /veh RHOB (11743442_s_at) / RFU RGS16 (11720943_a_at) / Fold change /veh RGS16 (11720943_a_at) / RFU RGS16 (11720944_at) / Fold change /veh RGS16 (11720944_at) / RFU, VPS4B / Fold change vs veh, VPS4B / RFU, CREB1 / Fold change vs veh, CREB1 / RFU, DNAJC13 / Fold change vs veh, DNAJC13 / RFU, GNAQ / Fold change vs veh, GNAQ / RFU, CDK5R1 / Fold change vs veh, CDK5R1 / RFU, ZRANB3 / Fold change vs veh, ZRANB3 / RFU, CUL4A / Fold change vs veh, CUL4A / RFU, CCNY / Fold change vs veh, CCNY / RFU, UFL1 / Fold change vs veh, UFL1 / RFU, COG3 / Fold change vs veh, COG3 / RFU, DIAPH2 / Fold change vs veh, DIAPH2 / RFU, SKA2 / Fold change vs veh, SKA2 / RFU, AFF3 / Fold change vs veh, AFF3 / RFU, LMF1 / Fold change vs veh, LMF1 / RFU, IPO11 / Fold change vs veh, IPO11 / RFU, DFFB / Fold change vs veh, DFFB / RFU, FOXP1 / Fold change vs veh, FOXP1 / RFU, CARD8 / Fold change vs veh, CARD8 / RFU, STRN3 / Fold change vs veh, STRN3 / RFU, ADK / Fold change vs veh, ADK / RFU, RASSF2 / Fold change vs veh, RASSF2 / RFU, WIPF1 / Fold change vs veh, WIPF1 / RFU, LARP1B / Fold change vs veh, LARP1B / RFU, RASA1 / Fold change vs veh, RASA1 / RFU, RB1 / Fold change vs veh, RB1 / RFU, PPFIA1 / Fold change vs veh, PPFIA1 / RFU, MAT2A / Fold change vs veh, MAT2A / RFU, CCT5 / Fold change vs veh, CCT5 / RFU, WDR92 / Fold change vs veh, WDR92 / RFU, CUX1 / Fold change vs veh, CUX1 / RFU, TTC7A / Fold change vs veh, TTC7A / RFU, TMEM135 / Fold change vs veh, TMEM135 / RFU, DEPTOR / Fold change vs veh, DEPTOR / RFU, CPM / Fold change vs veh, CPM / RFU, DNAJB6 / Fold change vs veh, DNAJB6 / RFU, CACNA2D3 / Fold change vs veh, CACNA2D3 / RFU, DTX4 / Fold change vs veh, DTX4 / RFU, TFCP2 / Fold change vs veh, TFCP2 / RFU, GMCL1 /// GMCL1P1 / Fold change vs veh, GMCL1 /// GMCL1P1 / RFU, AEBP2 / Fold change vs veh, AEBP2 / RFU, SNHG1 /// SNORD22 /// SNORD25 /// SNORD26 /// SNORD27 /// SNORD28 /// SNORD29 /// SNORD31 / Fold change vs veh, SNHG1 /// SNORD22 /// SNORD25 /// SNORD26 /// SNORD27 /// SNORD28 /// SNORD29 /// SNORD31 / Fold change (Aza/veh), C12orf56 (ProbeSet 11735607_a_at) / Fold change (ACY-1035/veh), C12orf56 (ProbeSet 11735607_a_at) / Fold change (Aza/veh), FGFR1OP (ProbeSet 11751329_s_at) / Fold change (ACY-1035/veh), FGFR1OP (ProbeSet 11751329_s_at) / Fold change (Aza/veh), VPS36 (ProbeSet 11739960_a_at) / Fold change (ACY-1035/veh), VPS36 (ProbeSet 11739960_a_at) / RFU SYPL1 (11715823_x_at) / Fold change /veh SYPL1 (11715823_x_at) / RFU IGFBP7 (11715501_s_at) / Fold change /veh IGFBP7 (11715501_s_at) / RFU REEP3 (11722064_at) / Fold change /veh REEP3 (11722064_at) / RFU IGLL1 (11728026_x_at) / Fold change /veh IGLL1 (11728026_x_at): dose or concentration left out as unconfirmed.

Regarding `Nc1ccc(-c2cccs2)cc1NC(=O)c1ccc2c(c1)cc(C1CC1)n2CCN1CCOCC1` [ACY-1035], the “RFU, ABCC4” value stood at 40.19 RFU.

These data come from PMC5218480 (PLoS ONE, 2017).
